Reference: patent publication US20230066946A1, “1,5-DIPHENYLPYRAZOLYL-3-OXYALKYL ACIDS AND 1-PHENYL-5-THIENYLPYRAZOLYL-3-OXYALKYL ACIDS AND THE USE THEREOF FOR CONTROL OF UNWANTED PLANT GROWTH” (Bayer Aktiengesellschaft, priority 2019, published 2023)

Experiments:
POLCO [1] = assay: Pre-emergence herbicidal action against POLCO; type: in vivo, Polygonum convolvulus; conditions: 320 g/ha, scored visually after about 3 weeks vs untreated controls
From the text: (§1) Seeds of mono- and dicotyledonous weed plants are placed in plastic pots in sandy loam soil (doubly sown with one species each of mono- or dicotyledonous weed plants per pot) and covered with soil. The compounds of the invention, formulated in the form of wettable powders (WP) or as emulsion concentrates (EC), are then applied onto the surface of the covering soil as aqueous suspension or emulsion with addition of 0.5% additive at a water application rate equivalent to 600 litres per hectare. After the treatment, the pots are placed in a greenhouse and kept under good growth conditions for the trial plants. After about 3 weeks, the effect of the preparations is scored visually in comparison with untreated controls as percentages. For example, 100% activity=the plants have died, 0% activity=like control plants. [table] Tables 4.1-4.15 below show the effects of selected compounds of the general formula (I) according to Tables 1 to 3 on various harmful plants at an application rate corresponding to 1280 or 320 g/ha, which have been obtained by the aforementioned experimental method.

ECHCG [2] = assay: Pre-emergence herbicidal action against ECHCG; type: in vivo, Echinochloa crus-galli; conditions: scored visually after about 3 weeks vs untreated controls, 100% = plants have died, 0% = like control plants
From the text: as §1

SETVI [3] = assay: Pre-emergence herbicidal action against SETVI; type: in vivo, Setaria viridis; conditions: 1280 g/ha, scored visually after about 3 weeks vs untreated controls
Procedure, shortened: (§2)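 Scoring is visual, in percent relative to untreated pots, roughly 3 weeks after soil-surface application. Rates were 1280 or 320 g/ha, delivered as WP or EC preparations with 0.5% additive in 600 L/ha water onto freshly sown, covered sandy loam.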

AMARE [4] = assay: Pre-emergence herbicidal action against AMARE; type: in vivo, Amaranthus retroflexus; conditions: scored visually after about 3 weeks vs untreated controls; for Pre-emergence action at 320 g/ha against AMARE in %: 100% = plants have died, 0% = like control plants; for Pre-emergence action against AMARE in %: 1280 g/ha
Procedure, shortened: as §2

STEME [5] = assay: Pre-emergence herbicidal action against STEME; type: in vivo, Stellaria media; conditions: scored visually after about 3 weeks vs untreated controls
Procedure, shortened: as §2

ECHCG [6] = assay: Post-emergence herbicidal action against ECHCG; type: in vivo, Echinochloa crus-galli; conditions: 1280 g/ha, post-emergence at one-leaf stage, rated visually after about 3 weeks vs untreated controls
Experimental: (§3) [table] Seeds of mono- and dicotyledonous weed plants are placed in plastic pots in sandy loam soil (twin sowing with one species each of mono- or dicotyledonous weed plants per pot), covered with soil and cultivated in a greenhouse under controlled growth conditions. 2 to 3 weeks after sowing, the test plants are treated at the one-leaf stage. The compounds of the invention, formulated in the form of wettable powders (WP) or as emulsion concentrates (EC), are applied to the green parts of the plants as aqueous suspension or emulsion with addition of 0.5% additive at a water application rate equivalent to 600 litres per hectare. After the test plants have been kept in the greenhouse under optimum growth conditions for about 3 weeks, the activity of the preparations is rated visually in comparison to untreated controls. For example, 100% activity=the plants have died, 0% activity=like control plants. Tables 5.1-5.16 below show the effects of selected compounds of the general formula (I) according to Tables 1 to 3 on various harmful plants at an application rate corresponding to 1280 or 320 g/ha, which have been obtained by the aforementioned experimental method.

SETVI [7] = assay: Post-emergence herbicidal action against SETVI; type: in vivo, Setaria viridis; conditions: 1280 g/ha, post-emergence at one-leaf stage, rated visually after about 3 weeks vs untreated controls
Experimental: as §3

AMARE [8] = assay: Post-emergence herbicidal action against AMARE; type: in vivo, Amaranthus retroflexus; conditions: visual rating about 3 weeks after treatment
Procedure, shortened: (§4)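 Each pot held twin-sown weeds in sandy loam, treated post-emergence 2 to 3 weeks after sowing at the one-leaf stage. Compound was given as a foliar spray at 1280 or 320 g/ha in 600 litres per hectare water with 0.5% additive. Visual scoring against untreated controls followed after about 3 weeks.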

MATIN = assay: Post-emergence herbicidal action against MATIN; type: in vivo, Matricaria inodora; conditions: visual rating about 3 weeks after treatment
Procedure, shortened: as §4

PHBPU = assay: Post-emergence herbicidal action against PHBPU; type: in vivo, Pharbitis purpurea; conditions: 320 g/ha, visual rating about 3 weeks after treatment
Experimental: as §3

POLCO [9] = assay: Post-emergence herbicidal action against POLCO; type: in vivo, Polygonum convolvulus; conditions: 320 g/ha, visual rating about 3 weeks after treatment
Experimental: as §3

STEME [10] = assay: Post-emergence herbicidal action against STEME; type: in vivo, Stellaria media; conditions: visual rating about 3 weeks after treatment
Procedure, shortened: as §4

VIOTR = assay: Post-emergence herbicidal action against VIOTR; type: in vivo, Viola tricolor; conditions: 320 g/ha, visual rating about 3 weeks after treatment
Experimental: as §3

VERPE [11] = assay: Post-emergence herbicidal action against VERPE; type: in vivo, Veronica persica; conditions: 320 g/ha, visual rating about 3 weeks after treatment
Experimental: as §3

VERPE [12] = assay: Pre-emergence herbicidal action against VERPE; type: in vivo, Veronica persica; conditions: 320 g/ha, scored visually after about 3 weeks vs untreated controls
From the text: as §1

SMILES | Pre-emergence action against POLCO in % (POLCO [1]) [%] | Pre-emergence action at 1280 g/ha against ECHCG in % (ECHCG [2]) [%] | Pre-emergence action against SETVI in % (SETVI [3]) [%] | Pre-emergence action at 320 g/ha against AMARE in % (AMARE [4]) [%] | Pre-emergence action against AMARE in % (AMARE [4]) [%] | Pre-emergence action against STEME in % (STEME [5]; 1280 g/ha) [%] | Post-emergence action against ECHCG in % (ECHCG [6]) [%] | Post-emergence action against SETVI in % (SETVI [7]) [%] | Post-emergence action against AMARE in % (AMARE [8]; 320 g/ha) [%] | Post-emergence action against AMARE in % (AMARE [8]; 1280 g/ha) [%] | Post-emergence action against MATIN in % (MATIN; 320 g/ha) [%] | Post-emergence action against MATIN in % (MATIN; 1280 g/ha) [%] | Post-emergence action against PHBPU in % (PHBPU) [%] | Post-emergence action against POLCO in % (POLCO [9]) [%] | Post-emergence action against STEME in % (STEME [10]; 1280 g/ha) [%] | Post-emergence action against VIOTR in % (VIOTR) [%] | Post-emergence action against VERPE in % (VERPE [11]) [%] | Pre-emergence action against STEME in % (STEME [5]; 320 g/ha) [%] | Pre-emergence action against VERPE in % (VERPE [12]) [%] | Post-emergence action against STEME in % (STEME [10]; 320 g/ha) [%]
COC(=O)COc1nn(-c2ccc(Cl)cc2)c(-c2ccccc2)c1Cl [I-001] | 90 | – | – | – | – | – | – | – | – | – | – | – | – | – | – | – | – | – | – | –
CCOC(=O)COc1nn(-c2ccc(F)cc2F)c(-c2ccccc2)c1Br [I-079] | 80 | 90 | 100 | 80 | 100 | 100 | 100 | 100 | 80 | 100 | 80 | 100 | 90 | 80 | 100 | 100 | 80 | – | – | –
CCOC(=O)COc1nn(-c2ccc(F)cc2F)c(-c2ccc(F)cc2)c1Br [I-081] | 100 | 90 | 100 | 80 | 100 | 100 | 90 | 90 | 90 | 100 | 80 | 100 | 90 | 80 | 100 | 100 | 80 | 80 | 80 | 80
O=C(O)COc1nn(-c2ccccc2F)c(-c2ccccc2)c1Br [I-082] | 80 | – | – | 90 | – | – | – | – | 80 | – | 80 | – | 90 | – | – | 100 | 80 | – | 80 | –
CCOC(=O)COc1nn(-c2ccc(F)cc2F)c(-c2ccccc2)c1Cl [I-100] | – | 100 | 100 | 100 | 100 | 100 | 90 | – | 80 | 90 | 80 | 90 | 90 | 90 | 90 | 100 | 90 | 90 | 100 | 80
COC(=O)COc1nn(-c2ccccc2)c(-c2ccc(F)cc2)c1Br [I-101] | 100 | 100 | 100 | 90 | 90 | 100 | – | – | 80 | 100 | 90 | 90 | 90 | – | – | 100 | 80 | – | – | –
C[Si](C)(C)COC(=O)COc1nn(-c2ccccc2F)c(-c2ccc(F)c(F)c2)c1Br [I-102] | 100 | 100 | 100 | 90 | 100 | 90 | – | – | 80 | 90 | 80 | 100 | 90 | – | 100 | 90 | 80 | 90 | 80 | –
COC(=O)C(C)Oc1nn(-c2ccccc2)c(-c2cc(F)cc(F)c2)c1Cl (stereo not shown) [I-165, Methyl 2-{[4-chloro-5-(3,5-difluorophenyl)-1-phenyl-1H-pyrazol-3-yl]oxy}propanoate] | – | – | 100 | 90 | 100 | 100 | – | 90 | – | 100 | – | 100 | 80 | 80 | 100 | 80 | 80 | – | 100 | –
C=CCNC(=O)COc1nn(-c2ccccc2)c(-c2ccc(F)cc2)c1Br [III-004] | – | 100 | 100 | 80 | 100 | 100 | – | – | 80 | 100 | – | – | 80 | 80 | – | – | – | – | 100 | –
C#CCNC(=O)COc1nn(-c2ccccc2)c(-c2ccc(F)cc2)c1Br [III-006] | 90 | 100 | 100 | 90 | 90 | 100 | – | – | 80 | 100 | – | – | 80 | – | – | 80 | 80 | – | 90 | –
C=CCNC(=O)COc1nn(-c2ccc(F)cc2)c(-c2cccc(F)c2)c1Br [III-015] | 90 | 100 | 100 | – | 100 | 100 | – | – | 80 | – | – | – | 80 | 80 | – | 80 | 90 | – | 90 | –
